This is an account of results in article PMC8943889, “Synthetic studies with the brevicidine and laterocidine lipopeptide antibiotics including analogues with enhanced properties and in vivo efficacy” (Chemical Science, 2022).

For orientation: MIC means the lowest concentration found to suppress growth. Low values mean greater potency, high ones weaker potency.

Structures are written as SMILES. In brackets after ≈: the same amount, converted by molar mass. Bounds are passed on as bounds.

Type in all cases: cell-based
Assay [1] concerns Gram-negative bacteria. Briefly: MIC comparison across the bacterial panel of Table 1. The conditions noted are these: enantiomer versus natural product, strains of Table 1. As to the method:
(§1) Minimum inhibitory concentrations (MICs) were determined by broth microdilution according to CLSI guidelines in triplicate. Blood agar plates were inoculated with glycerol stocks of E. coli ATCC 25922, E. coli MCR-1 (clinical isolate from Utrecht Medical Centre, NL), E. coli EQAS MCR-2 (clinical isolate from Wageningen University and Research, NL), K. pneumoniae ATCC 11228, K. pneumoniae ATCC 13883, K. pneumonia 2048 (clnical isolate from Vrije Universiteit Amsterdam Medical Centre, NL), K. pneumonia JS-123 (clinical isolate from Utrecht Medical […]
(clinical isolate from Rijksinstituut voor Volksgezondheid en Milieu, NL), A. baumannii MDR (clinical isolate from Vrije Universiteit Amsterdam Medical Centre, NL), P. aeruginosa ATCC 27853, P. aeruginosa PAO1, P. aeruginosa NRZ-03961 (Reference strain from Das Nationale Referenzzentrum für gramnegative Krankenhauserreger, DE), P. aeruginosa M-120 (clinical isolate from Leiden University Medical Centre, NL) and S. aureus USA300 (clinical isolate from Texas Children's Hospital, USA). E. coli 25922 MCR1 was grown on LB agar supplemented with kanamycin. The inoculated agar plates were then incubated for 16 h at 37°C . […] In parallel, the lipopeptide antibiotics to be assessed were serially diluted with Mueller-Hinton broth (MHB) in polypropylene 96-well plates (50 µL in each well). […]

In assay [2] the test system is P. aeruginosa ATCC 27853. To be noted: ATCC 27853, 16 h. As to the method:
as §1
(§2) (clinical isolate from Rijksinstituut voor Volksgezondheid en Milieu, NL), A. baumannii MDR (clinical isolate from Vrije Universiteit Amsterdam Medical Centre, NL), P. aeruginosa ATCC 27853, P. aeruginosa PAO1, P. aeruginosa NRZ-03961 (Reference strain from Das Nationale Referenzzentrum für gramnegative Krankenhauserreger, DE), P. aeruginosa M-120 (clinical isolate from Leiden University Medical Centre, NL) and S. aureus USA300 (clinical isolate from Texas Children's Hospital, USA). E. coli 25922 MCR1 was grown on LB agar supplemented with kanamycin. The inoculated agar plates were then incubated for 16 h at 37°C . Individually grown colonies were subsequently used to inoculate 3 mL aliquots of TSB that were then incubated at 37°C with shaking at 220 rpm. In parallel, the lipopeptide antibiotics to be assessed were serially diluted with Mueller-Hinton broth (MHB) in polypropylene 96-well plates (50 µL in each well).
(§3) Once the OD600 of the bacterial suspensions reached 0.5, the bacteria were diluted with MHB (final concentration 2 × 10^5 CFU mL−1) and added to the microplates containing the test compounds (50 µL to each well, final volume: 100 µL). The well-plates were sealed with an adhesive membrane and after 16 h of incubation at 37°C with shaking at 220 rpm the wells were visually inspected for bacterial growth. MIC values reported are based on three technical replicates and defined as the lowest concentration of the compound that prevented visible growth of bacteria. […]

Assay [3] relates to A. baumannii ATCC 17961. To be noted: ATCC 17961, 16 h. As to the method: as §1, §2, §3
Assay [4] has as its system K. pneumoniae ATCC 13883. The conditions noted are these: ATCC 13883, 16 h. As to the method: as §1, §2, §3
The test system of assay [5] is A. baumannii ATCC 17978. The conditions noted are these: ATCC 17978, 16 h. As to the method:
as §1, §2, §3

The test system of assay [6] is A. baumannii 2018-006. To be noted: 2018-006, 16 h. As to the method:
as §1, §2, §3

For assay [7], the system named is P. aeruginosa PAO1. The conditions noted are these: PAO1, 16 h. As to the method:
as §1, §2, §3

In assay [8] the test system is P. aeruginosa NRZ-03961. To be noted: NRZ-03961, 16 h. The method, then:
as §1, §2, §3

Assay [9] concerns S. aureus USA300. To be noted: USA300, 16 h. As to the method:
as §1, §2, §3

Assay [10] deals with P. aeruginosa M-120. To be noted: M-120, 16 h. As to the method:
as §1, §2, §3

The subject of assay [11] is K. pneumoniae JS-123. The conditions noted are these: JS-123, 16 h. As to the method: as §1, §2, §3
In assay [12] the test system is K. pneumoniae ATCC 11228. To be noted: ATCC 11228, 16 h. The method, then: as §1, §2, §3
Assay [13] has as its system E. coli ATCC 25922. The conditions noted are these: ATCC 25922, 16 h. As to the method:
as §1, §2, §3

Assay [14] concerns K. pneumoniae 2048. To be noted: 2048, 16 h. The method, then: as §1, §2, §3
For assay [15], the system named is E. coli ATCC 25922. Put plainly: LPS antagonization assay. To be noted: E. coli ATCC 25922, MHB supplemented with 1 mg/mL LPS from E. coli O55:B5, 16 h 37 °C. As to the method:
Figure S6. LPS antagonization assay. A blood agar plate was inoculated with a glycerol stock of E. coli ATCC 25922. The […]
inoculated agar plate was then incubated for 16 h at 37 °C. An individually grown colony was subsequently used to inoculate 3 mL […]
of TSB that was then incubated at 37 °C with shaking at 220 rpm. In parallel, the compounds to be assessed were serially diluted […]
with Mueller-Hinton broth (MHB) in polypropylene 96-well plates (50 µL in each well). Once the OD600 of the bacterial […]
suspensions reached 0.5, the bacteria were diluted with MHB (final concentration 2 × 10^5 CFU mL−1). The media were then either […]
supplemented with 1 mg/mL of LPS (lipopolysaccharides from E. coli O55:B5, Sigma-Aldrich) or added directly to the microplates […]
containing the test compounds (50 µL to each well, final volume: 100 µL). The well-plates were sealed with an adhesive membrane and after 16 h of incubation at 37°C with shaking at 220 rpm. The w ells were visually inspected for bacterial growth.
(1 picture or pasted object on this page, not shown here)

As to `CC[C@@H](C)[C@H]1NC(=O)[C@H](NC(=O)[C@@H](Cc2c[nH]c3ccccc23)NC(=O)[C@H](CCCN)NC(=O)CNC(=O)[C@@H](CCCN)NC(=O)[C@H](CCCN)NC(=O)[C@H](Cc2c[nH]c3ccccc23)NC(=O)[C@H](Cc2ccc(O)cc2)NC(=O)[C@H](CO)NC(=O)CCCCCC(C)C)[C@H](C)OC(=O)CNC(=O)CNC(=O)[C@@H](CC(N)=O)NC1=O` (single isomer, unassigned) [ent-Lat (ent-2), ent-laterocidine], the “MIC values higher than the natural products” value in [1] is 8- to 32 fold. The MIC amounted to 8 µg/mL (≈ 4.98 µM) in [2]; 4 µg/mL (≈ 2.49 µM) in assay [3]; 16 µg/mL (≈ 9.97 µM) in assay [4]; 4 µg/mL (≈ 2.49 µM) in [5]; 4 µg/mL (≈ 2.49 µM) in [6]; 16 µg/mL (≈ 9.97 µM) in assay [7]. Moreover, the MIC in assay [8] stood at 16 µg/mL (≈ 9.97 µM); in [9] it was 64 µg/mL (≈ 39.9 µM); in assay [10] it was 16 µg/mL (≈ 9.97 µM); in assay [11], 4 µg/mL (≈ 2.49 µM); in assay [12], 16 µg/mL (≈ 9.97 µM); in assay [13] it was 8 µg/mL (≈ 4.98 µM). In [14], this compound showed an MIC of 16 µg/mL (≈ 9.97 µM). The “decrease of antibacterial activity in the presence of LPS” value in [15] is given as not below 8 fold.
`CC[C@H](C)[C@@H]1NC(=O)[C@@H](NC(=O)[C@H](Cc2c[nH]c3ccccc23)NC(=O)[C@@H](CCCN)NC(=O)CNC(=O)[C@H](CCCN)NC(=O)[C@@H](CCCN)NC(=O)[C@@H](Cc2c[nH]c3ccccc23)NC(=O)[C@@H](Cc2ccc(O)cc2)NC(=O)[C@@H](CO)NC(=O)CCCCCC(C)C)[C@@H](C)OC(=O)CNC(=O)CNC(=O)[C@H](CC(N)=O)NC1=O` [Lat (2), laterocidine]: the MIC in [2] was not above 0.5 µg/mL; in assay [3], 0.5 µg/mL (≈ 0.312 µM); in [4] it was 1 µg/mL (≈ 0.623 µM); in [5], 0.5 µg/mL (≈ 0.312 µM); in [6] it was 2 µg/mL (≈ 1.25 µM); in [7], 1 µg/mL (≈ 0.623 µM). For the same compound, the MIC is 1 to 2 µg/mL in [8]; 64 µg/mL (≈ 39.9 µM) in assay [9]; 1 µg/mL (≈ 0.623 µM) in assay [10]; 0.5 µg/mL (≈ 0.312 µM) in [11]; 2 µg/mL (≈ 1.25 µM) in [12]; 1 µg/mL (≈ 0.623 µM) in assay [13]. Moreover, the MIC in assay [14] is 2 µg/mL (≈ 1.25 µM). Moreover, in [15], the “decrease of antibacterial activity in the presence of LPS” value is given as not below 8 fold.
In the case of `CCC(C)CCC(=O)N[C@@H](CC(N)=O)C(=O)N[C@@H](Cc1ccc(O)cc1)C(=O)N[C@@H](Cc1c[nH]c2ccccc12)C(=O)N[C@@H](CCCN)C(=O)N[C@H](CCCN)C(=O)NCC(=O)N[C@@H](CCCN)C(=O)N[C@H](Cc1c[nH]c2ccccc12)C(=O)N[C@H]1C(=O)N[C@H]([C@H](C)CC)C(=O)NCC(=O)N[C@H](CO)C(=O)O[C@H]1C` (single isomer, unassigned) [ent-Brev (ent-1), ent-brevicidine], the “MIC values higher than the natural products” value in [1] is 8- to 32 fold. The MIC in assay [2] is 16 µg/mL (≈ 10.5 µM); in [3], 32 µg/mL (≈ 21.1 µM); in assay [4] it was 32 µg/mL (≈ 21.1 µM); in [5], 16 to 32 µg/mL; in assay [6] it was 8 to 16 µg/mL; in [7], 32 µg/mL (≈ 21.1 µM). Moreover, the MIC is 32 µg/mL (≈ 21.1 µM) in assay [8]; more than 64 µg/mL in assay [9]; 16 µg/mL (≈ 10.5 µM) in [10]; 8 µg/mL (≈ 5.26 µM) in assay [11]; 32 µg/mL (≈ 21.1 µM) in assay [12]; 16 µg/mL (≈ 10.5 µM) in assay [13]. The compound further gave an MIC in [14] of 32 µg/mL (≈ 21.1 µM).
